Experimental data: patent US20050112573A1, “Method of detecting toxic substance” (priority 2001, published 2005)

Tested on: yeast genes (level of expressed mRNA)
Experiment: DNA chip analysis of expressed mRNA of yeast genes after 2 h culture with a toxic chemical substance
Type: cell-based, Saccharomyces cerevisiae S288C
Experimental: Yeast (Saccharomyces cerevtisiae S288C (α SUC2mal mel gap2 CUP1)) were cultured at 25° C. on YPD medium (yeast extract 1%, polypepton 2%, glucose 2%). One of toxic chemical substances was added to the cell at logarithmic growth phase, and the cell was further cultured for two hours. Cell was cultured without any chemical substance in the same condition, and was used as control. Concentrations of the chemical substances were defined to inhibit the growth of the yeast but not lead to death.
After the completion of cultivation, the culture was centrifuged to collect the cells. To the cells, sodium acetate buffer (50 mM sodium acetate, 10 mM EDTA, 1% SDS) was added, and the mixture was shaken at 65° C. for five minutes, followed by returning to room temperature, and obtaining the supernatant, which procedure was repeated two times. To the supernatant, ½ amount of a solution of phenol/chloroform was added, and the mixture was centrifuged to give a supernatant, which was added with an equal amount of chloroform, and the mixture was centrifuged to give a supernatant. To the supernatant, an equal amount of isopropanol containing 0.3 M sodium acetate was added, and the mixture was allowed to stand at room temperature for 30 minutes, after which the mixture was centrifuged to give a sediment of the whole RNAs. Seventy % ethanol was added to the sediment, and the mixture was again centrifuged to give a sediment, which was then dried and dissolved in water. mRNA was isolated from the whole RNAs as followings. In view of the fact that a poly A chain is attached to the 3′ terminus of mRNA, a polynucleotide having a poly T structure which was immobilized on the surface of latex beads was used to trap the mRNA, and then the mRNA was washed and eluted with spine column (Oligotex-dT30<Super>mRNA Purification Kit, Takara). Reverse transcription of the mRNA was conducted with a reverse transcriptase (Super Script II Reverse Transcriptase; catalogue No. 18064-014, GibcoBRL) using fluorescence-labeled nucleotides to give cDNAs that were introduced with Cy3-dUTP or Cy5-dUTP during the reverse transcription.
The labeled cDNAs were dissolved in TE buffer (10 mM Tris-HCl/1 mM EDTA, pH8.0), and the solution was dropped on the DNA chip containing the whole genes of yeast (DNA Chip Research Inc. Japan) so that the cDNAs were hybridized on the DNA chip at 65° C. for over 12 hours. The fluoresces intensity of the DNA chip was read with a scanner, and the ratio relative to the fluorescence intensity resulting from the absence of chemical substance was estimated as the following, which is shown in Tables 1 to 9: [formula]
In the Tables, “Intensity” indicated in the rightmost column is a value of the level of expressed mRNA of each gene in control cells as divided by the average level of the expressions of the whole genes.

Which results are given for CdCl2 [(2)]?
The level of expressed mRNA in the presence of chemical substance/ (yeast gene YFL010C, ratio to control without chemical substance, 2 h culture): 4.8; The level of expressed mRNA in the presence of chemical substance/ (yeast gene YFL024C, ratio to control without chemical substance, 2 h culture): 1.1; The level of expressed mRNA in the presence of chemical substance/The level of expressed mRNA in the absence of chemical substance (yeast gene YFL028C): 1.1; The level of expressed mRNA in the presence of chemical substance/ (yeast gene YFL032W, ratio to control without chemical substance, 2 h culture): 1.5; The level of expressed mRNA in the presence of chemical substance/The level of expressed mRNA in the absence of chemical substance (yeast gene YFL043C): 1.2; The level of expressed mRNA in the presence of chemical substance/in the absence of chemical substance (yeast gene YGL035C): 1.4; The level of expressed mRNA in the presence of chemical substance/ (yeast gene YGL037C, ratio to control without chemical substance, 2 h culture): 2.7; The level of expressed mRNA in the presence of chemical substance/ (yeast gene YGL047W, ratio to control without chemical substance, 2 h culture): 1.9; The level of expressed mRNA in the presence of chemical substance/ (yeast gene YGL053W, ratio to control without chemical substance, 2 h culture): 1.5; The level of expressed mRNA in the presence of chemical substance/ (yeast gene YGL121C, ratio to control without chemical substance, 2 h culture): 5.0; The level of expressed mRNA in the presence of chemical substance/The level of expressed mRNA in the absence of chemical substance (yeast gene YGL158W): 2.8; The level of expressed mRNA in the presence of chemical substance/ (yeast gene YGL199C, ratio to control without chemical substance, 2 h culture): 1.7; The level of expressed mRNA in the presence of chemical substance/The level of expressed mRNA in the absence of chemical substance (yeast gene YGL229C): 0.7; The level of expressed mRNA in the presence of chemical substance/ (yeast gene YGR101W, ratio to control without chemical substance, 2 h culture): 1.3; The level of expressed mRNA in the presence of chemical substance/ (yeast gene YGR110W, ratio to control without chemical substance, 2 h culture): 3.1; The level of expressed mRNA in the presence of chemical substance/ (yeast gene YGR130C, ratio to control without chemical substance, 2 h culture): 0.7; The level of expressed mRNA in the presence of chemical substance/The level of expressed mRNA in the absence of chemical substance (yeast gene YGR136W): 1.2; The level of expressed mRNA in the presence of chemical substance/ (yeast gene YGR154C, ratio to control without chemical substance, 2 h culture): 2.9; The level of expressed mRNA in the presence of chemical substance/The level of expressed mRNA in the absence of chemical substance (yeast gene YGR189C): 0.9; The level of expressed mRNA in the presence of chemical substance/The level of expressed mRNA in the absence of chemical substance (yeast gene YGR213C): 2.9; The level of expressed mRNA in the presence of chemical substance/ (yeast gene YGR221C, ratio to control without chemical substance, 2 h culture): 2.2; The level of expressed mRNA in the presence of chemical substance/The level of expressed mRNA in the absence of chemical substance (yeast gene YGR257C): 0.8; The level of expressed mRNA in the presence of chemical substance/in the absence of chemical substance (yeast gene YGR287C): 1.0; The level of expressed mRNA in the presence of chemical substance/The level of expressed mRNA in the absence of chemical substance (yeast gene YHR004C): 1.1; The level of expressed mRNA in the presence of chemical substance/The level of expressed mRNA in the absence of chemical substance (yeast gene YHR071W): 1.1; The level of expressed mRNA in the presence of chemical substance/ (yeast gene YHR138C, ratio to control without chemical substance, 2 h culture): 1.8; The level of expressed mRNA in the presence of chemical substance/The level of expressed mRNA in the absence of chemical substance (yeast gene YHR139C): 4.6; The level of expressed mRNA in the presence of chemical substance/The level of expressed mRNA in the absence of chemical substance (yeast gene YHR142W): 0.8; The level of expressed mRNA in the presence of chemical substance/ (yeast gene YHR199C, ratio to control without chemical substance, 2 h culture): 2.0; The level of expressed mRNA in the presence of chemical substance/ (yeast gene YIL023C, ratio to control without chemical): 1.2; The level of expressed mRNA in the presence of chemical substance/ (yeast gene YIL041W, ratio to control without chemical substance, 2 h culture): 1.2; The level of expressed mRNA in the presence of chemical substance/ (yeast gene YIL087C, ratio to control without chemical substance, 2 h culture): 1.9; The level of expressed mRNA in the presence of chemical substance/The level of expressed mRNA in the absence of chemical substance (yeast gene YIL123W): 0.5; The level of expressed mRNA in the presence of chemical substance/The level of expressed mRNA in the absence of chemical substance (yeast gene YIL140W): 1.0; The level of expressed mRNA in the presence of chemical substance/ (yeast gene YJL057C, ratio to control without chemical substance, 2 h culture): 1.2; The level of expressed mRNA in the presence of chemical substance/ (yeast gene YJL066C, ratio to control without chemical substance, 2 h culture): 1.2; The level of expressed mRNA in the presence of chemical substance/in the absence of chemical substance (yeast gene YJL070C): 0.9; The level of expressed mRNA in the presence of chemical substance/The level of expressed mRNA in the absence of chemical substance (yeast gene YJL073W): 0.8; The level of expressed mRNA in the presence of chemical substance/ (yeast gene YJL082W, ratio to control without chemical substance, 2 h culture): 0.8; The level of expressed mRNA in the presence of chemical substance/The level of expressed mRNA in the absence of chemical substance (yeast gene YJL089W): 1.5; The level of expressed mRNA in the presence of chemical substance/The level of expressed mRNA in the absence of chemical substance (yeast gene YJL116C): 1.8; The level of expressed mRNA in the presence of chemical substance/ (yeast gene YJL151C, ratio to control without chemical substance, 2 h culture): 2.4; The level of expressed mRNA in the presence of chemical substance/ (yeast gene YJL152W, ratio to control without chemical substance, 2 h culture): 1.5; The level of expressed mRNA in the presence of chemical substance/ (yeast gene YJL161W, ratio to control without chemical substance, 2 h culture): 2.2; The level of expressed mRNA in the presence of chemical substance/in the absence of chemical substance (yeast gene YJL167W): 1.4; The level of expressed mRNA in the presence of chemical substance/ (yeast gene YJL171C, ratio to control without chemical substance, 2 h culture): 0.7; The level of expressed mRNA in the presence of chemical substance/in the absence of chemical substance (yeast gene YJL216C): 4.7; The level of expressed mRNA in the presence of chemical substance/The level of expressed mRNA in the absence of chemical substance (yeast gene YJR004C): 0.8; The level of expressed mRNA in the presence of chemical substance/ (yeast gene YJR008W, ratio to control without chemical substance, 2 h culture): 1.5; The level of expressed mRNA in the presence of chemical substance/ (yeast gene YJR054W, ratio to control without chemical): 0.9; The level of expressed mRNA in the presence of chemical substance/The level of expressed mRNA in the absence of chemical substance (yeast gene YJR086W): 1.1; The level of expressed mRNA in the presence of chemical substance/The level of expressed mRNA in the absence of chemical substance (yeast gene YKL008C): 0.6; The level of expressed mRNA in the presence of chemical substance/The level of expressed mRNA in the absence of chemical substance (yeast gene YKL013C): 0.9; The level of expressed mRNA in the presence of chemical substance/The level of expressed mRNA in the absence of chemical substance (yeast gene YKL039W): 1.1; The level of expressed mRNA in the presence of chemical substance/The level of expressed mRNA in the absence of chemical substance (yeast gene YKL041W): 0.8; The level of expressed mRNA in the presence of chemical substance/ (yeast gene YKL071W, ratio to control without chemical substance, 2 h culture): 3.8
